Results taken from patent publication US11696928B2, “Compounds and use thereof in the expansion of stem cells and/or progenitor cells” (UNIVERSITE DE MONTREAL, priority 2017, dated 2023).
pIC50: −log10 of the molar value.

Legend:
AhR = biological target: T1, AhR (Homo sapiens, UniProt P35869); test: Inhibition of AhR-mediated gene transcription (HEK-XRE 11.1 luciferase reporter, MeBIO induction); format: cell-based; conditions: HEK-XRE 11.1 cells, MeBIO 0.1 nM, luminescence after 24 hours; Table 1
T1 construct: One of the resultant clones was named HEK-XRE 11.1, and used in the reporter gene assays; endogenous in cells; host or cells: HEK-XRE 11.1 (HEK cells stably carrying the AhR-responsive luciferase reporter X4-4.27 and phRL-CMV)
T1 sequence (P35869 11-848): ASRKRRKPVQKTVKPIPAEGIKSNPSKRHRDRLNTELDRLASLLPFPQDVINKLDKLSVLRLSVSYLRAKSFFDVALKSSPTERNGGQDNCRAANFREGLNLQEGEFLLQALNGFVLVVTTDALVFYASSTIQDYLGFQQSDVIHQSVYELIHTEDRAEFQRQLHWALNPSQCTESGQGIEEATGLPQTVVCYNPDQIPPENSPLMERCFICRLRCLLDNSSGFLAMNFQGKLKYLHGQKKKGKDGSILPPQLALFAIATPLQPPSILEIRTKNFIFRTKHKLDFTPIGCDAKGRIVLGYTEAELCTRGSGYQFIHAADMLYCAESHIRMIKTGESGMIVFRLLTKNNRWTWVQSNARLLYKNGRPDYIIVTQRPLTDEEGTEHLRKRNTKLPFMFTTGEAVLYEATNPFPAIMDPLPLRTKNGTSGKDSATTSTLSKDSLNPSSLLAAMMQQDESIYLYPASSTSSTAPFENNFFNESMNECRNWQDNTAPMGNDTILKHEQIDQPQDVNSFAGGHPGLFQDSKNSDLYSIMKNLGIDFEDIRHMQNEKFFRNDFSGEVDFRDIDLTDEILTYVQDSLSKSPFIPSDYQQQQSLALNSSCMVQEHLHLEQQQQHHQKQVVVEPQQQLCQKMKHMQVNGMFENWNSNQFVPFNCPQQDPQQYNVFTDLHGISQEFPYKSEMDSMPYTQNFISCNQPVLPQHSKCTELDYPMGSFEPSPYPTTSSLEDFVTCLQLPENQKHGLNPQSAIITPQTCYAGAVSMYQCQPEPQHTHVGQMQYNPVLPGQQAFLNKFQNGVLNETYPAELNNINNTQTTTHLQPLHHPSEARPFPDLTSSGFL
Procedure: HEK cells line was transfected with an AhR-responsive firefly luciferase reporter gene X4-4.27 and the stable transfectants generated were again transfected with phRL-CMV (a Renilla luciferase expression vector; Promega) along with pBAsi-hU6 Pur DNA (a plasmid carrying the puromycin-resistant gene; TaKaRa, Shiga, Japan), and maintained in the presence of both hygromycin B and puromycin (2 mg/mL). One of the resultant clones was named HEK-XRE 11.1, and used in the reporter gene assays.
HEK-XRE 11.1 cells were plated in 384-well plates at a density of 25,000 cells in 50 uL volume per well. The induction of ARh pathway was done by addition of MeBIO at 0.1 nM concentration. ARh antagonist compounds were then added to seeded cells in serial dilutions (8 dilutions, 1:[…] down to 5 nM) in duplicate wells. Renilla expression was not used as internal control. On each plate, Compound 1001 and SR1 were added as dose control (8 dilutions, 1:3, 5 mM down to 2.5 nM for SR1 and 2 mM down to 1 nM for compound 1001). Luminescence activity was evaluated after 24 hours culture using Lumi-384-CellTiterGlo-Corning protocol. Dose-response curves were generated using nonlinear regression in Excel.

[1] = test system: Human CD34+ cord blood (CB) cells; test: CD34+ activity assessment (7-day expansion of pre-expanded CD34+ cells, flow cytometry); format: cell-based; conditions: concentration at which compound/vehicle ratio of CD34+ cell number is >= 1.5; 7 days, with 35 nM UM0128171; Table 1
Procedure: Human CD34+ cord blood (CB) cells were isolated from fresh units using RosetteSep™ 0034 pre-enrichment cocktail followed by CD34 positive selection using EasySep Kit™ (StemCell Technologies). The cells were then pre-expanded in bulk, by culturing at 37° C. for 6 days in HSC expansion media consisting of StemSpan ACF (StemCell Technologies) supplemented with 100 ng/mL Stem Cell Factor (SCF, Shenandoah), 100 ng/mL FMS-like Tyrosine Kinase 3 Ligand (FLT3L, Shenandoah), 50 ng/mL Thrombopoietin (TPO, Shenandoah), 2 mM GlutaMAX™ (Invitrogen), 10 μg/mL low density lipoproteins (LDL, StemCell Technologies), 10 μg/mL Ciprofloxacin and 35 nM UM0128171. […] Following the pre-expansion, cells were harvested, aliquoted and frozen until use.
For each activity assessment, CD34+ pre-expanded cells (approximately 2000 per well in a 384-well plate) were cultured in HSC expansion media, in the presence of 35 nM UM0128171. Compounds were serially diluted (1/2) in DMSO (10 dilutions per compound) and added to the cells in order to achieve a 1/1000 final dilution. StemRegenin1 (SR1) and/or Compound 1001 were included in all experiments as controls to monitor assay performance. The plate was incubated at 37° C. for 7 days in static conditions (i.e. no shaking and no addition of media). Flow cytometry analysis was performed at the end of the 7-day expansion. Cells were stained with PE-labeled anti-human CD45RA (BD Biosciences) and APC-labeled anti-human CD34 (BD Biosciences) and analyzed using Intellicyt IQue cytometer equipped with ForeCyt software. Gates were drawn around the populations of interest to obtain cell numbers and relative proportions. The EC1.5 value, which is the concentration at which the compound/vehicle ratio is greater or equal to 1.5, was calculated by plotting the CD34+ cell number against concentrations (log-scale) in a 4-PL curve and fitting the curve using IDBS XLfit (set model 251) in Microsoft Excel.

Compound | pIC50 (AhR) | EC1.5 [1] [nM]
Cc1cnc2sc(C(=O)Nc3ccncc3)c(N)c2c1 [Compound 1063] | 6.30 to 7.30 | >5000
Nc1c(C(=O)Nc2ccc(Br)cc2)sc2ccc(C(F)(F)F)cc12 [Compound 1064] | 6.30 to 7.30 | 100 to 1000
Cc1ccc(NC(=O)c2sc3ccc(C(F)(F)F)cc3c2N)cc1 [Compound 1065] | 6.30 to 7.30 | 100 to 1000
Nc1c(C(=O)Nc2ccc(Cl)cc2)sc2ccc(C(F)(F)F)cc12 [Compound 1066] | > 7.30 | 100 to 1000
Nc1c(C(=O)Nc2cccnc2)sc2ccc(C(F)(F)F)cc12 [Compound 1067] | > 7.30 | 1000 to 5000
Cc1cnc2sc(C(=O)Nc3ccc(Cl)cc3)c(N)c2c1 [Compound 1068] | > 7.30 | <100
Cc1ccc(NC(=O)c2sc3ncc(C)cc3c2N)cc1 [Compound 1069] | > 7.30 | 100 to 1000
Cc1ccc(NC(=O)c2sc3ncc(C(F)(F)F)cc3c2N)cn1 [Compound 1070] | 6.30 to 7.30 | >5000
COc1ccc(NC(=O)c2sc3ncc(C(F)(F)F)cc3c2N)cn1 [Compound 1071] | > 7.30 | 100 to 1000
Cc1ccc2sc(C(=O)Nc3ccccc3)c(N)c2n1 [Compound 1072] | 6.30 to 7.30 | >5000
Cc1ccc2sc(C(=O)Nc3ccc(Cl)cc3)c(N)c2n1 [Compound 1073] | 6.30 to 7.30 | >5000
Nc1c(C(=O)Nc2ccc(F)c(Cl)c2)sc2ncc(C(F)(F)F)cc12 [Compound 1074] | > 7.30 | 100 to 1000
Nc1c(C(=O)Nc2ccc(F)c(F)c2)sc2ncc(C(F)(F)F)cc12 [Compound 1075] | > 7.30 | 100 to 1000
Cc1cc(NC(=O)c2sc3ncc(C(F)(F)F)cc3c2N)ccc1F [Compound 1076] | 6.30 to 7.30 | 100 to 1000
Nc1c(C(=O)Nc2cccc(F)c2)sc2ncc(C(F)(F)F)cc12 [Compound 1077] | > 7.30 | 100 to 1000
Cc1ccc(NC(=O)c2sc3ncc(C(F)(F)F)cc3c2N)cc1F [Compound 1078] | 6.30 to 7.30 | 1000 to 5000
Nc1c(C(=O)Nc2cc(F)cc(F)c2)sc2ncc(C(F)(F)F)cc12 [Compound 1079] | 6.30 to 7.30 | 1000 to 5000
COc1cccc(NC(=O)c2sc3cnc(C(F)(F)F)cc3c2N)c1 [Compound 1080] | > 7.30 | 100 to 1000
COc1cccc(NC(=O)c2sc3nc4c(cc3c2N)CCC4)c1 [Compound 1081] | > 7.30 | <100

Compound | pIC50 (AhR) | EC1.5 [1] [nM]
Nc1c(C(=O)Nc2ccc(Cl)cc2)sc2nc3c(cc12)CCC3 [Compound 1082] | > 7.30 | <100
COc1ccc(NC(=O)c2sc3ccc(C(F)(F)F)cc3c2N)cc1 [Compound 1083] | 6.30 to 7.30 | <100
Nc1c(C(=O)Nc2ccc(OC(F)(F)F)cc2)sc2ncc(C(F)(F)F)cc12 [Compound 1084] | > 7.30 | <100
COc1cccc(NC(=O)c2sc3ncc(C(F)(F)F)cc3c2N)c1 [Compound 1085] | 6.30 to 7.30 | 100 to 1000
Nc1c(C(=O)Nc2ccc(OC(F)F)cc2)sc2ncc(C(F)(F)F)cc12 [Compound 1086] | > 7.30 | 100 to 1000
COc1ccc(NC(=O)c2sc3ncc(C(F)(F)F)cc3c2N)cc1Cl [Compound 1087] | > 7.30 | <100
Nc1c(C(=O)Nc2ccc(F)cc2)sc2cnc(C(F)(F)F)cc12 [Compound 1088] | > 7.30 | >5000
Nc1c(C(=O)Nc2ccc(F)cc2)sc2ccc(C(F)(F)F)cc12 [Compound 1089] | > 7.30 | 100 to 1000
Nc1c(C(=O)Nc2ccccc2)sc2ncc(C3CC3)cc12 [Compound 1091] | 6.30 to 7.30 | 100 to 1000
Nc1c(C(=O)Nc2ccc(Oc3ccccc3)cc2)sc2ncc(C(F)(F)F)cc12 [Compound 1092] | 6.30 to 7.30 | 100 to 1000
Nc1c(C(=O)Nc2cccc(Cl)c2)sc2ncc(C(F)(F)F)cc12 [Compound 1093] | > 7.30 | <100
Cc1cccc(NC(=O)c2sc3ncc(C(F)(F)F)cc3c2N)c1 [Compound 1094] | > 7.30 | <100
Nc1c(C(=O)Nc2ccc(Cl)c(Cl)c2)sc2ncc(C(F)(F)F)cc12 [Compound 1095] | 6.30 to 7.30 | 100 to 1000
Cc1cc(NC(=O)c2sc3ncc(C(F)(F)F)cc3c2N)ccc1Cl [Compound 1096] | 6.30 to 7.30 | 1000 to 5000
Nc1c(C(=O)Nc2ccc(Cl)c(O)c2)sc2ncc(C(F)(F)F)cc12 [Compound 1097] | < 6.30 | 1000 to 5000
Nc1c(C(=O)Nc2ccc3c(c2)OCO3)sc2ncc(C(F)(F)F)cc12 [Compound 1098] | 6.30 to 7.30 | <100
Nc1c(C(=O)Nc2ccc3c(c2)OCCO3)sc2ncc(C(F)(F)F)cc12 [Compound 1099] | 6.30 to 7.30 | <100
Nc1c(C(=O)Nc2ccsc2)sc2ncc(C(F)(F)F)cc12 [Compound 1100] | > 7.30 | <100
